According to US10793557B2, “Sting agonist compounds” (Merck Sharp & Dohme Corp., priority 2018, dated 2020):

Assays:
[1] = test system: secretion of interferon-beta from THP1 cells; assay: IFN-β secretion in THP1 cell culture (5 h); format: cell-based; conditions: Homo sapiens, THP-1, 5 h, compound at 3 uM, 30 uM cGAMP = 100%, read-out: % Effect relative to 2′3′-cGAMP (@ 3 uM)
In short: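 Thawed THP1 cells (0.8×10^6/mL, RPMI with 0.5% FBS) exposed to compounds 1.5–30000 nM (0.3% DMSO) for 5 h at 37 °C. Supernatant IFN-β quantified by AlphaLISA. Percent effect normalised to 30 uM cGAMP and DMSO controls; EC50 from 4-parameter fit.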

[2] = biological target: T1, full-length HAQ STING (Homo sapiens, UniProt Q86WV6, G230A/H232R/R293Q/R71H); assay: 3H-cGAMP filtration binding assay (HAQ STING); conditions: competition with tritiated cGAMP, HAQ STING membrane
T1 construct: AviTag (after GG linker) (C); HRV3C cleavage site (after GS linker) (C); HIS8 (C); made in house; host or cells: Trichoplusia ni (Hi-Five) insect cells infected with baculovirus (virus generated and amplified in Sf21 cells); used as a washed membrane preparation
In short: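 Hi-Five (T. ni) membranes overexpressing the STING variant (2.2 ug/ml working) preincubated with compound 60 min at RT in PBS, then [3H]cGAMP (8 nM working stock) added for 60 min at RT. Bound radioactivity captured on GF/B filters and counted by scintillation; EC50 from 4-parameter fit of control-normalized activity.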

[3] = biological target: T2, full-length WT STING (Homo sapiens, UniProt Q86WV6, H232R); assay: 3H-cGAMP filtration binding assay (WT STING); conditions: competition with tritiated cGAMP, WT STING membrane
T2 construct: AviTag (after gg linker) (C); HRV3C cleavage site (after gs linker) (C); HIS8 (C); made in house; host or cells: Trichoplusia ni (Hi-Five) insect cells infected with baculovirus (virus generated and amplified in Sf21 cells); used as a washed membrane preparation
In short: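 Competitive filtration binding of [3H]cGAMP (16 nM working stock) to T. ni membranes overexpressing full-length WT human STING, 60 min at RT in PBS. Bound radioactivity counted after GF/B filtration; 10-point 1:3 titration, EC50 from 4-parameter fit after control normalisation.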

T1 sequence (Q86WV6 with tags, fused parts or gaps R71H/G230A/H232R/R293Q): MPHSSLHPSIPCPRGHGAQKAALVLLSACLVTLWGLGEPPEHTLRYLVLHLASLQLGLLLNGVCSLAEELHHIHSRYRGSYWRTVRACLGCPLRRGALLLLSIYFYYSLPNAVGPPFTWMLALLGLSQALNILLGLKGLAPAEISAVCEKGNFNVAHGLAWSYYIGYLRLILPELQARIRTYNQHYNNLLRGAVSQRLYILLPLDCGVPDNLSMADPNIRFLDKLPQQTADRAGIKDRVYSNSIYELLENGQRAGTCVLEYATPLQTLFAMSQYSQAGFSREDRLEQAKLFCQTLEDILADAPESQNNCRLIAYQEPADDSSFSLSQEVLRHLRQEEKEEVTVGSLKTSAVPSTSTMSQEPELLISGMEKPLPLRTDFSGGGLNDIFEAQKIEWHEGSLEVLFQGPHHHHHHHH
T2 sequence (Q86WV6 with tags, fused parts or gaps H232R): as the sequence (Q86WV6 with tags, fused parts or gaps R71H/G230A/H232R/R293Q) above, with H71R, A230G, Q293R counted along it

Which activation at 3 µM [1] does the source give for `COc1cc2sc(C(=O)C[C@H](C)C(=O)O)cc2c(Cl)c1OCCCOc1c(O)cc2sc(C(=O)C[C@H](C)C(=O)O)cc2c1F` [Example 190, (S)-4-(5-(3-((2-((S)-3-carboxybutanoyl)-4-chloro-6-methoxybenzo[b]thiophen-5-yl)oxy)propoxy)-4-fluoro-6-hydroxybenzo[b]thiophen-2-yl)-2-methyl-4-oxobutanoic acid] here?
Its activation at 3 µM is 126%.

What about the EC50 [2] of the same molecule?
The EC50 was 1 nM.

And the EC50 [3]?
Its EC50 is 2 nM.
